Assay results: patent US10105357B2, “Indication of antibiotic drugs for preparation of cancer inhibition pharmaceutical composition” (LAUNX BIOMEDICAL CO., LTD., priority 2014, dated 2018)
Counter-ions that a name gives are not always drawn. Like-named read-outs stand apart in the source and are kept apart here.

Key:
Assay type in all cases: cell-based, human
[1] = tested on: HepG2 (Hepatocellular Carcinoma); experiment: Cell viability analysis, hepatic cancer HepG2; conditions: Homo sapiens
[2] = tested on: 786-O (Renal adenocarcinoma); experiment: Cell viability analysis, renal cancer 786-O; conditions: Homo sapiens, 786-0, 72 h, read-out: The results of antibiotic drug inhibiting cancer cell lines (cell viability analysis), 786-O
[3] = tested on: LoVo (Colorectal Adenocarcinoma); experiment: Cell viability analysis, colon cancer LoVo; conditions: Homo sapiens, LoVo
[4] = tested on: MDA-MB-231 (Mammary Gland, Adenocarcinoma); experiment: Cell viability analysis, breast cancer MDA-MB-231; conditions: Homo sapiens, MDA-MB-231, 72 h, read-out: The results of antibiotic drug inhibiting cancer cell lines (cell viability analysis), MDA-MB231
NIH: OVCAR-3 = experiment: Cell viability analysis, ovarian cancer NIH: OVCAR-3; conditions: Homo sapiens, OVCAR-3, 72 h, read-out: The results of antibiotic drug inhibiting cancer cell lines (cell viability analysis), NIH-OVCAR-3
[5] = tested on: A549 (Lung Adenocarcinoma); experiment: Cell viability analysis, lung cancer A549; conditions: Homo sapiens
[6] = tested on: HI650 (Lung Adenocarcinoma); experiment: Cell viability analysis, lung cancer HI650; conditions: Homo sapiens
[7] = tested on: A375 (Amelanotic Melanoma); experiment: Cell viability analysis, skin cancer A375; conditions: Homo sapiens
AsPC-1 = experiment: Cell viability analysis, pancreatic cancer AsPC-1; conditions: Homo sapiens, ASPC1, 72 h, read-out: The results of antibiotic drug inhibiting cancer cell lines (cell viability analysis), AsPC-1
[8] = tested on: HeLa (Cervix Adenocarcinoma); experiment: Cell viability analysis, cervical cancer HeLa; conditions: Homo sapiens, HeLa
[9] = tested on: MCF7 (Mammary Gland, Adenocarcinoma); experiment: Cell viability analysis, breast cancer MCF7; conditions: Homo sapiens
[10] = tested on: HL-60 (Acute Promyelocytic Leukemia); experiment: Cell viability analysis, leukemia HL-60; conditions: Homo sapiens
[11] = tested on: TSGH-8301 (Urinary Bladder Carcinoma); experiment: Cell viability analysis, bladder cancer TSGH-8301; conditions: Homo sapiens
TOV-21G = experiment: Cell viability analysis, ovarian cancer TOV-21G; conditions: Homo sapiens, TOV21G, 72 h, read-out: The results of antibiotic drug inhibiting cancer cell lines (cell viability analysis), TOV-21G
[12] = tested on: PC3 (p53−) (Prostate Adenocarcinoma); experiment: Cell viability analysis, prostate cancer PC3; conditions: Homo sapiens
U-2OS = experiment: Cell viability analysis, osteosarcoma U-2OS; conditions: Homo sapiens, U2OS, 72 h, read-out: The results of antibiotic drug inhibiting cancer cell lines (cell viability analysis), U2OS
[13] = tested on: Hep3B (hepatocellular carcinoma); experiment: Cell viability analysis, hepatic cancer Hep3B; conditions: Homo sapiens, Hep3B, 72 h, read-out: The results of antibiotic drug inhibiting cancer cell lines (cell viability analysis), Hep3B
T24 = experiment: Cell viability analysis, bladder cancer T24; conditions: Homo sapiens, T-24, 72 h, read-out: The results of antibiotic drug inhibiting cancer cell lines (cell viability analysis), T24
[14] = tested on: SAS (Tongue squamous cell carcinoma); experiment: Cell viability analysis, tongue cancer SAS; conditions: Homo sapiens, 72 h, read-out: The results of antibiotic drug inhibiting cancer cell lines (cell viability analysis), SAS
[15] = tested on: C-33A (Cervical carcinoma); experiment: Cell viability analysis, cervical cancer C-33A; conditions: Homo sapiens, C-33-A, 72 h, read-out: The results of antibiotic drug inhibiting cancer cell lines (cell viability analysis), C-33A
cancer cell lines = experiment: Cell viability analysis (WST-1) on cancer cell lines; conditions: drug 10 μM, 72 hours, WST-1; Table 3
[16] = tested on: AGS (Gastric Adenocarcinoma); experiment: Cell viability analysis, gastric cancer AGS; conditions: Homo sapiens
[17] = tested on: BCC (basal cell carcinoma); experiment: Cell viability analysis, skin cancer BCC; conditions: Homo sapiens, 72 h, read-out: The results of antibiotic drug inhibiting cancer cell lines (cell viability analysis), BCC
[18] = tested on: MKN-45 (Gastric Adenocarcinoma); experiment: Cell viability analysis, gastric cancer MKN-45; conditions: Homo sapiens
BxPC-3 = experiment: Cell viability analysis, pancreatic cancer BxPC-3; conditions: Homo sapiens, BXPC-3, 72 h, read-out: The results of antibiotic drug inhibiting cancer cell lines (cell viability analysis), BxPC-3

## CO[C@H]1/C=C/O[C@@]2(C)Oc3c(C)c(O)c4c(O)c(c(/C=N/N5CCN(C6CCCC6)CC5)c(O)c4c3C2=O)NC(=O)/C(C)=C\C=C\[C@H](C)[C@H](O)[C@@H](C)[C@@H](O)[C@@H](C)[C@H](OC(C)=O)[C@@H]1C [Rifapentine (Priftin), Rifapentine]
[1]; HepG2, 72 h, read-out: The results of antibiotic drug inhibiting cancer cell lines (cell viability analysis), HepG2, HepG2, repeated experiment
  viability at 10 µM: 112%
[1]; HepG2, 72 h, read-out: cell viability (survival rate), HepG2, drug 10 μM, 72 hours, WST-1, OD450 nm
  viability at 10 µM: 102%
[2]
  viability at 10 µM: 85.9%
[3]; 72 h, read-out: The results of antibiotic drug inhibiting cancer cell lines (cell viability analysis), LoVo, repeated experiment
  viability at 10 µM: 93.5%
[3]; 72 h, read-out: cell viability (survival rate), LoVo, drug 10 μM, 72 hours, WST-1, OD450 nm
  viability at 10 µM: 92.3%
[4]
  viability at 10 µM: 93.3%
NIH: OVCAR-3
  viability at 10 µM: 104%
[5]; A549, 72 h, read-out: The results of antibiotic drug inhibiting cancer cell lines (cell viability analysis), A549, A549, repeated experiment
  viability at 10 µM: 87.4%
[5]; A549, 72 h, read-out: cell viability (survival rate), A549, drug 10 μM, 72 hours, WST-1, OD450 nm
  viability at 10 µM: 47.4%
[6]; NCI-H1650, 72 h, read-out: The results of antibiotic drug inhibiting cancer cell lines (cell viability analysis), H1650, H1650, repeated experiment
  viability at 10 µM: 69%
[7]; A-375, 72 h, read-out: The results of antibiotic drug inhibiting cancer cell lines (cell viability analysis), A375, A375, repeated experiment
  viability at 10 µM: 98.2%
[7]; A-375, 72 h, read-out: cell viability (survival rate), A375, drug 10 μM, 72 hours, WST-1, OD450 nm
  viability at 10 µM: 77.7%
AsPC-1
  viability at 10 µM: 78.2%
[8]; 72 h, read-out: The results of antibiotic drug inhibiting cancer cell lines (cell viability analysis), HeLa, repeated experiment
  viability at 10 µM: 104%
[8]; 72 h, read-out: cell viability (survival rate), HeLa, drug 10 μM, 72 hours, WST-1, OD450 nm
  viability at 10 µM: 56.5%
[9]; MCF7, 72 h, read-out: The results of antibiotic drug inhibiting cancer cell lines (cell viability analysis), MCF-7, MCF-7, repeated experiment
  viability at 10 µM: 84.1%
[9]; MCF7, 72 h, read-out: cell viability (survival rate), MCF7, drug 10 μM, 72 hours, WST-1, OD450 nm
  viability at 10 µM: 46.2%
[10]; HL-60, 72 h, read-out: cell viability (survival rate), HL-60, drug 10 μM, 72 hours, WST-1, OD450 nm
  viability at 10 µM: 99.1%
[11]; 72 h, read-out: The results of antibiotic drug inhibiting cancer cell lines (cell viability analysis), TSGH-8301, TSGH-8301, repeated experiment
  viability at 10 µM: 94.7%
[11]; 72 h, read-out: cell viability (survival rate), TSGH, drug 10 μM, 72 hours, WST-1, OD450 nm
  viability at 10 µM: 99.2%
TOV-21G
  viability at 10 µM: 79.7%
[12]; 72 h, read-out: The results of antibiotic drug inhibiting cancer cell lines (cell viability analysis), PC-3, PC-3, repeated experiment
  viability at 10 µM: 98.4%
[12]; 72 h, read-out: cell viability (survival rate), PC3, drug 10 μM, 72 hours, WST-1, OD450 nm
  viability at 10 µM: 99.1%
U-2OS
  viability at 10 µM: 87.2%
[13]
  viability at 10 µM: 110%
T24
  viability at 10 µM: 86.3%
[14]
  viability at 10 µM: 85.4%
[15]
  viability at 10 µM: 91.7%
Cancer cell lines
  inhibition effect on different cancer cell lines: significant inhibition effect
[16]; 72 h, read-out: The results of antibiotic drug inhibiting cancer cell lines (cell viability analysis), AGS, repeated experiment
  viability at 10 µM: 76.4%
[16]; 72 h, read-out: cell viability (survival rate), AGS, drug 10 μM, 72 hours, WST-1, OD450 nm
  viability at 10 µM: 63.7%
[17]
  viability at 10 µM: 85.7%
[18]; MKN-45, 72 h, read-out: The results of antibiotic drug inhibiting cancer cell lines (cell viability analysis), MKN-45, MKN-45, repeated experiment
  viability at 10 µM: 98.6%
[18]; MKN-45, 72 h, read-out: cell viability (survival rate), MKN-45, drug 10 μM, 72 hours, WST-1, OD450 nm
  viability at 10 µM: 58.6%
BxPC-3
  viability at 10 µM: 74%

## Cc1cc(C(C)(C)C)cc(C)c1CC1=NCCN1 [Xylometazoline HCl]
[1]; 72 h, HepG2, repeated experiment, read-out: The results of antibiotic drug inhibiting cancer cell lines (cell viability analysis), HepG2
  viability at 10 µM: 106%
[1]; HepG2, drug 10 μM, 72 hours, WST-1, OD450 nm, read-out: cell viability (survival rate), HepG2
  viability at 10 µM: 83%
[2]
  viability at 10 µM: 100%
[3]; 72 h, repeated experiment, read-out: The results of antibiotic drug inhibiting cancer cell lines (cell viability analysis), LoVo
  viability at 10 µM: 88.7%
[3]; drug 10 μM, 72 hours, WST-1, OD450 nm, read-out: cell viability (survival rate), LoVo
  viability at 10 µM: 47.1%
[4]
  viability at 10 µM: 96.3%
NIH: OVCAR-3
  viability at 10 µM: 102%
[5]; 72 h, A549, repeated experiment, read-out: The results of antibiotic drug inhibiting cancer cell lines (cell viability analysis), A549
  viability at 10 µM: 83%
[5]; A549, drug 10 μM, 72 hours, WST-1, OD450 nm, read-out: cell viability (survival rate), A549
  viability at 10 µM: 74.7%
[6]; NCI-H1650, 72 h, H1650, repeated experiment, read-out: The results of antibiotic drug inhibiting cancer cell lines (cell viability analysis), H1650
  viability at 10 µM: 95.3%
[6]; NCI-H1650, drug 10 μM, 72 hours, WST-1, OD450 nm, read-out: cell viability (survival rate), H1650
  viability at 10 µM: 33.4%
[7]; A-375, 72 h, A375, repeated experiment, read-out: The results of antibiotic drug inhibiting cancer cell lines (cell viability analysis), A375
  viability at 10 µM: 102%
[7]; A-375, drug 10 μM, 72 hours, WST-1, OD450 nm, read-out: cell viability (survival rate), A375
  viability at 10 µM: 65.1%
AsPC-1
  viability at 10 µM: 82.8%
[8]; 72 h, repeated experiment, read-out: The results of antibiotic drug inhibiting cancer cell lines (cell viability analysis), HeLa
  viability at 10 µM: 117%
[8]; drug 10 μM, 72 hours, WST-1, OD450 nm, read-out: cell viability (survival rate), HeLa
  viability at 10 µM: 107%
[9]; MCF7, 72 h, MCF-7, repeated experiment, read-out: The results of antibiotic drug inhibiting cancer cell lines (cell viability analysis), MCF-7
  viability at 10 µM: 90.1%
[9]; MCF7, drug 10 μM, 72 hours, WST-1, OD450 nm, read-out: cell viability (survival rate), MCF7
  viability at 10 µM: 94.4%
[10]; HL-60, drug 10 μM, 72 hours, WST-1, OD450 nm, read-out: cell viability (survival rate), HL-60
  viability at 10 µM: 84.9%
[11]; 72 h, TSGH-8301, repeated experiment, read-out: The results of antibiotic drug inhibiting cancer cell lines (cell viability analysis), TSGH-8301
  viability at 10 µM: 122%
[11]; drug 10 μM, 72 hours, WST-1, OD450 nm, read-out: cell viability (survival rate), TSGH
  viability at 10 µM: 42.6%
TOV-21G
  viability at 10 µM: 92.3%
[12]; 72 h, PC-3, repeated experiment, read-out: The results of antibiotic drug inhibiting cancer cell lines (cell viability analysis), PC-3
  viability at 10 µM: 116%
[12]; drug 10 μM, 72 hours, WST-1, OD450 nm, read-out: cell viability (survival rate), PC3
  viability at 10 µM: 54.8%
U-2OS
  viability at 10 µM: 60.2%
[13]
  viability at 10 µM: 114%
T24
  viability at 10 µM: 92.5%
[14]
  viability at 10 µM: 76.4%
[15]
  viability at 10 µM: 104%
Cancer cell lines
  inhibition effect on different cancer cell lines: significant inhibition effect
[16]; 72 h, AGS, repeated experiment, read-out: The results of antibiotic drug inhibiting cancer cell lines (cell viability analysis), AGS
  viability at 10 µM: 125%
[16]; drug 10 μM, 72 hours, WST-1, OD450 nm, read-out: cell viability (survival rate), AGS
  viability at 10 µM: 52.2%
[17]
  viability at 10 µM: 116%
[18]; 72 h, MKN-45, repeated experiment, read-out: The results of antibiotic drug inhibiting cancer cell lines (cell viability analysis), MKN-45
  viability at 10 µM: 121%
[18]; MKN-45, drug 10 μM, 72 hours, WST-1, OD450 nm, read-out: cell viability (survival rate), MKN-45
  viability at 10 µM: 65.8%
BxPC-3
  viability at 10 µM: 72.9%
